Source: patent publication US20090292021A1, “ANTICONVULSIVE PHARMACEUTICAL COMPOSITIONS” (INSERM (INSTITUT NATIONAL DE LA SANTE ET DE LA REC, priority 2006, published 2009)

Columns and labels:
Assay type in all cases: in vivo, rat
Wistar rats [1] = assay: Flicker ERG recording in VGB-treated rats; settings: for decrease of flicker ERG amplitude: vs before treatment
Protocol: (§1) As described previously Duboc, A., Hanoteau, N., Simonutti, M., Rudolf, G., Nehlig, A., Sahel, J. A., Picaud, S. (2004). “Vigabatrin, the GABA-transaminase inhibitor, damages cone photoreceptors in rats.” Annals of Neurology 55(5): 695-705), Wistar rats Rj Wi IOPS Han were purchased from Janvier Breeding Center (Le Genest St Isle, France) at 7 weeks and acclimatised for 2 weeks. VGB was dissolved in 0.9% NaCl at a concentration of 125 mg/ml. It was injected daily and intraperitonealy at a final dose of 250 mg/kg. To investigate the progression of visual defects with the treatment duration, rats of the same age were divided in five groups and treated with the drug for different times as described in table 1 hereunder.
Flicker ERGs were recorded on each animal before the treatment, at the end of the VGB treatment, and 4-day later. For the study of functional recovery after VGB withdrawal, flicker ERGs were recorded before the treatment, at 35-day of treatment, 16-day recovery and 60-day recovery period.
Animals were kept in the dark room for at least 12 hours and handled under dim red light. They were anaesthetized by an intraperitoneal (i.p) injection (1 to 1.5 ml/kg) of a solution containing ketamine (40 mg/ml) and xylazine (4 mg/ml Rompum). Pupils were dilated with a drop of 0.5% tropicamide, and the cornea was locally anaesthetized with a drop of 0.4% chlorhydrate d'oxybupropacaïne. Measurements were obtained from the right eye of animals laid on a temperature controlled blanket. The measuring electrode, a gold ring covered with a plastic contact lens, was placed on the cornea and a tight electrical contact was obtained by addition of methylcellulose. The reference and ground electrodes made from needles were subcutaneously inserted at the head and the tail respectively. Finally, the whole animal was placed in a Ganzfeld bowl delivering light stimuli (Toennies Multiliner Vision, Höchberg, Germany). For flickering ERG measurements, animals were adapted for 10 minutes to a white background light at a 25 cdm^−2 to suppress rod responses. Flicker responses were obtained with 50 white light flashes at a 2.5 cdsm^−2 intensity and a 15 Hz flickering frequency (High pass filter 1 Hz and low pass filter 300 Hz). Amplitude and implicit time responses of the flicker ERG were measured at the first maximum positive peak with respect to the light onset.

Wistar rats [2] = assay: Exploration of eye fundus with scanning laser ophthalmoscope (SLO)
Protocol: as §1
Examination of the eye fundus was performed with a Scanning Laser Opthalmoscope (SLO) (HRA, Heidelberg, Dossenheim, Allemagne). Pupils were dilated with a drop of 0.5% tropicamide. During the examination an experimenter hold the animal to point the eye in the axis of camera. To limit animal stress, the duration of examination was minimized and these short sequences were alternated with rests periods. Eye fundus in each animal eye was examined in unanaesthetized rats with the 534 nm laser light beam using a filter to decrease its intensity. Fundus autofluorescence was obtained with the 488 nm laser beam.

Wistar rats [3] = assay: Indocyanine green (ICG) angiography of choroidal vessels
Protocol: as §1
For ICG angiography, animals were anesthetized as above. A solution of Infracyanine (0.1 ml, 5 mg/ml, Société d'Etude et de Recherche Biologiques, Paris, France) dissolved in distilled water was injected intravenously. Images were obtained with the 795 nm laser light immediately after the injection.

Wistar rats [4] = assay: Length of disorganized outer retina on DAPI-stained retinal sections; settings: treatment of 45 days, mean ± S.E.M, n=8
Protocol: as §1
(§2) After the animal sacrifice, the cornea was branded at the upper side to orient the eye cup. The eyes were dissected, the cornea and lens removed and a nick was made on the upper side of the eye cup. Eye cups were embedded in OCT (Labonord, Villeneuve d'Ascq, France) to prepare cryosection (Duboc et al 2004, Supra). Dorso-ventral retinal sections passing through the optic nerve were stained with Diamidi-phenyl-indole (DAPI). […] The retinal length showing displaced photoreceptor nuclei was measured on both part of the optic nerve on the retina of VGB-treated rat.

Wistar rats [5] = assay: Immunolabeling of retinal sections: cone arrestin (cone count) and G0α (ON bipolar cells); settings: treated for 45 days
Protocol: as §1
After the animal sacrifice, the cornea was branded at the upper side to orient the eye cup. The eyes were dissected, the cornea and lens removed and a nick was made on the upper side of the eye cup. Eye cups were embedded in OCT (Labonord, Villeneuve d'Ascq, France) to prepare cryosection (Duboc et al 2004, Supra). Dorso-ventral retinal sections passing through the optic nerve were stained with Diamidi-phenyl-indole (DAPI). The DAPI-nuclear staining was visualized on a Leica microscope (20× objective) and digitalized on a camera coupled to optical image analysis software (Analysis program). The retinal length showing displaced photoreceptor nuclei was measured on both part of the optic nerve on the retina of VGB-treated rat.
For immunolabeling, the oriented retinal sections were permeabilized for 5 minutes in PBS containing 0.1% Triton X-100 (Sigma, St Louis, Mo.), rinsed and incubated in PBS containing 1% bovine serum albumin (Eurobio, Les-Ulis, France), 0.1% Tween 20 (Sigma) and 0.1% sodium azide (Merck, Fontenay-Sous-Bois) for 2 hours at room temperature. The primary antibodies added to the solution were incubated for 2 hours at room temperature. Antibodies used were the anti-VEGF rabbit polyclonal antibody (1:400, Ab-1, NeoMarkers, Interchim, France), the monoclonal anti-vimentin antibody (1:400, cloneV9, DAKO, France), the polyclonal mCAR antibody (1:10,000; a gift from Dr Cheryl Craft (Keck School of Medicine of the University of Southern California, Los Angeles, USA)), and the monoclonal anti-G0-α antibody (1:500, Chemicon). After several washes, sections were incubated with the secondary antibodies, goat anti-rabbit IgG conjugated to Alexa TM 594 and goat anti-mouse IgG conjugated to Alexa TM 488 (1:500, (Molecular Probes, Eugene, Oreg.) for 2 hours. The nuclear dye, DAPI, was added in an incubation solution. Sections were mounted with the Fluorsave reagent (Calbiochem, San Diego, Calif.).

Wistar rats [6] = assay: VEGF immunolabeling of retinal sections; settings: VGB-treated vs control animals
Protocol: as §1
as §2, with “rat. […]” for “rat.”

`C=CC(N)CCC(=O)O` (centres unmarked) [VGB, 4-amino-5-hexenoic acid] was tested, and the “flicker ERG amplitude” value (Wistar rats [1]; 15-day treatment, after 4-day recovery period) was 51 μV, the “flicker ERG amplitude” value (Wistar rats [1]; 25-day treatment, after 4-day recovery period) was 38 μV and the “flicker ERG amplitude” value (Wistar rats [1]; 35-day treatment, after 4-day recovery period) was 50 μV. The “flicker ERG amplitude” value (Wistar rats [1]; end of 5-day treatment, 250 mg/kg daily i.p.) was 83 μV, the “flicker ERG amplitude” value (Wistar rats [1]; end of 15-day treatment, 250 mg/kg daily i.p.) was 52 μV and the “decrease of flicker ERG amplitude” value (Wistar rats [1]; end of 15-day treatment) was 45%. The “flicker ERG amplitude” value (Wistar rats [1]; end of 25-day treatment, 250 mg/kg daily i.p.) was 21 μV, the “decrease of flicker ERG amplitude” value (Wistar rats [1]; end of 25-day treatment) was 79% and the “flicker ERG amplitude” value (Wistar rats [1]; end of 35-day treatment, 250 mg/kg daily i.p.) was 29 μV. The “decrease of flicker ERG amplitude” value (Wistar rats [1]; end of 35-day treatment) was 71%, the “flicker ERG amplitude” value (Wistar rats [1]; recovery study, 35-day treatment, 16-day recovery) was 84 μV and the “reduction of flicker ERG” value (Wistar rats [1]; recovery study, 35-day treatment, 16-day recovery, vs value before treatment) was 31%. For the same molecule, the “flicker ERG amplitude” value (Wistar rats [1]; recovery study, 35-day treatment, 60-day recovery) was 88 μV, the “reduction of flicker ERG” value (Wistar rats [1]; recovery study, 35-day treatment, 60-day recovery, vs value before treatment) was 28% and the “flicker ERG amplitude” value (Wistar rats [1]; recovery study, 35-day treatment, immediately after treatment, n=6) was 51 μV. The “reduction of flicker ERG” value (Wistar rats [1]; recovery study, 35-day treatment, immediately after treatment, vs beginning of experiment) was 58%, the “retinal autofluorescence, SLO” value (Wistar rats [2]; 488 nm laser, in vivo) was “fluorescent spots were observed in the modified areas in two rats” and the “modified retinal areas at eye fundus, SLO” value (Wistar rats [2]; after arresting the VGB treatment for one month (n=2)) was “remained visible”. The “modified retinal areas (dark/grey network) at eye fundus, green laser SLO” value (Wistar rats [2]; after treatment of 25 days (n=4), 35 days (n=1) and 55 days (n=4)) was “present in all animals examined”, the “modified retinal areas at eye fundus, SLO” value (Wistar rats [2]; animals treated for 5 days (n=1) or 11 days (n=3)) was “No such modified areas were detected” and the “size or aspect of the choroidal vasculature” value (Wistar rats [3]; after treatment of 25 (n=4) and 55 days (n=4)) was “no change in the size or aspect of the choroidal vasculature could be detected”. For the same molecule, the “ICG fluorescence in areas showing modified eye fundus after extravasation” value (Wistar rats [3]; animals treated for 55 days) was “inhomogeneous fluorescent image”, the “length of disorganized outer retina, lower pole” value (Wistar rats [4]) was 70 μm and the “length of disorganized outer retina, upper pole” value (Wistar rats [4]) was 1106 μm. For the same molecule, the “ON bipolar cells labeled with G0α antibody” value (Wistar rats [5]) was “some cells were observed to send a process into the ONL”, the “cone morphology, cone arrestin labelling” value (Wistar rats [5]) was “many cones were observed to be truncated” and the “decrease in density of cones vs control rats” value (Wistar rats [5]; cone arrestin immunolabeling) was 18.7%. The density of cones (Wistar rats [5]; cone arrestin immunolabeling, n=7) was 12.34±0.36 cells/300 μm and the “VEGF expression in retina (Müller glial cells)” value (Wistar rats [6]) was “increase in VEGF expression”.
